Results from PubChem BioAssay (NCI).
Where “and” joins values, the source holds several entries; their conditions need not be identical. Equal entries are not always repeated.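 Following 48 hours of exposure in 96-well plates, responses at five concentrations were used to interpolate endpoints linearly. GI50: concentration for 50% inhibition of growth. TGI denotes the concentration required for complete inhibition of growth.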

Columns and labels:
Assay in all cases: NCI tumour cell line growth inhibition, 48 h
BT-549 breast = system: BT-549 breast
IGROV1 ovarian = system: IGROV1 ovarian
SF-539 CNS = system: SF-539 CNS
NCI-H226 lung = system: NCI-H226 lung
MCF7 breast = system: MCF7 breast
SNB-19 CNS = system: SNB-19 CNS
SK-MEL-5 melanoma = system: SK-MEL-5 melanoma
A549 NSCLC = system: A549 NSCLC
PC-3 prostate = system: PC-3 prostate
T-47D breast = system: T-47D breast

| Compound | TGI (BT-549 breast) [µM] | TGI (IGROV1 ovarian) | TGI (SF-539 CNS) [µM] | TGI (NCI-H226 lung) | TGI (MCF7 breast) | TGI (SNB-19 CNS) [µM] | TGI (SK-MEL-5 melanoma) | TGI (A549 NSCLC) | TGI (PC-3 prostate) | TGI (T-47D breast) | GI50 (BT-549 breast) [µM] | GI50 (IGROV1 ovarian) [µM] | GI50 (SF-539 CNS) [µM] | GI50 (NCI-H226 lung) [µM] | GI50 (MCF7 breast) [µM] | GI50 (SNB-19 CNS) [µM] | GI50 (SK-MEL-5 melanoma) [µM] | GI50 (A549 NSCLC) [µM] | GI50 (PC-3 prostate) [µM] | GI50 (T-47D breast) [µM] |
| --- | --- | --- | --- | --- | --- | --- | --- | --- | --- | --- | --- | --- | --- | --- | --- | --- | --- | --- | --- | --- |
| CC1(C)CCC(C)(C)c2c1ccc(O)c2Cc1c(O)ccc2c1C(C)(C)CCC2(C)C | 5.2 | 3.68 µM | 4.05 | 3.88 µM | 3.83 µM | 5.4 | 3.51 µM | 5.57 µM | 3.79 µM | 3.8 µM |  |  |  |  |  |  |  |  |  |  |
| COc1cc(OC)c(NC(=O)c2cc3ccccc3cc2O)cc1Cl | 66 | 11.2 µM | 12.9 | 17.7 µM | 9.08 µM | > 100 | 6.34 µM | 10.5 µM | 8.02 µM | > 100 µM | 4.33 | 2.03 | 3.04 | 3.32 | 2.51 | 4.82 | 2.4 | 3.38 | 2.13 | 2.29 |
| CN(C)CCOC(c1ccccc1)c1ccccc1 | 48.4 | 46.3 µM and > 100 µM |  | 56.4 µM and > 100 µM | 54 µM and > 100 µM |  | 28.2 µM and > 100 µM | 51.7 µM and > 100 µM | 44.4 µM and > 100 µM | 57.2 µM and > 100 µM | 33.7 | 29.3 |  | 39.7 | 36.5 |  | 15.7 | 35.9 |  | 31.4 |
| CCCCCCc1nc2nc(Cl)c(Cl)nc2[nH]1 | > 100 | > 100 µM | > 100 | > 100 µM | > 100 µM | > 100 | > 100 µM | > 100 µM | > 100 µM | > 100 µM | 22.5 | 18.9 | > 100 | 7.21 | 4.08 | 6.2 | 2.61 | 4.34 | 4.68 | 2.68 |
| O=S(=O)(Nc1cc(Cl)ccc1Cl)c1ccc(-c2cnc(C3CC3)o2)cc1 | 14.9 | > 100 µM | 10.2 | 38.6 µM | > 100 µM | > 100 | 21.8 µM | > 100 µM | 17 µM | > 100 µM | 0.449 | 0.673 | 1.24 | 4.55 | 0.557 | 1.51 | 3.36 | 1.66 | 0.563 | 1.94 |
| COc1cnc2c(c1)C(=O)c1c-2n(CCCNC(C)C)c(=O)c2cc(F)ccc12 | 4.09 | 1.92 µM | 0.703 | 0.325 µM | 2.08 µM | 1.32 | 0.496 µM | 0.239 µM | 2.55 µM | 0.651 µM | 0.655 | 0.206 | 0.245 | 0.146 | 0.0318 | 0.179 | 0.156 | 0.0718 | 0.281 | 0.0846 |
| CNC(=O)Oc1cc(C)c(/C=C/c2cncc(C(=O)NC)c2)c(C)c1 | > 25 | > 25 µM | > 25 | > 25 µM | > 25 µM | > 25 | > 25 µM | > 25 µM | > 25 µM | > 25 µM | > 25 | > 23.2 | > 21.6 | > 25 | > 25 | > 25 | > 22.1 | > 25 | > 25 | > 25 |
| CCCCCCCCCCCCOC1C(C(CC(=O)N2CCN(c3cccc(C(F)(F)F)c3)CC2)NS(=O)(=O)c2cc(Cl)cc(Cl)c2)OC2OC(C)(C)OC21 (centres undefined) | > 100 | > 100 µM | > 100 | > 100 µM | > 100 µM | > 100 | > 100 µM | > 100 µM | > 100 µM | > 100 µM | > 100 | > 100 | > 100 | > 100 | > 100 | > 100 | > 100 | > 100 | > 100 | > 100 |
| C=CN(C)S(C)(=O)=O | > 100 | > 100 µM | > 100 | > 100 µM | > 100 µM | > 100 | > 100 µM | > 100 µM | > 100 µM | > 100 µM | > 100 | > 100 | > 100 | > 100 | > 100 | > 100 | > 100 | > 100 | > 100 | > 100 |
| C=C1C(=O)O[C@@H]2C1C[C@@H](O)C(=C)CC/C=C(\C)CCC[C@H](C)[C@H]2OC(C)=O (some centres undefined) | 7.46 | 19.5 µM | 26.3 | 12.8 µM | 18.5 µM | > 100 | 10.8 µM | 48.8 µM | 22.9 µM | 42.3 µM | 2.73 | 5.17 | 12.8 | 3.37 | 3.04 | 27.1 | 2.76 | 22.9 | 6.1 | 6.46 |
| O=c1c2c3c(sc2nc(N/N=C/c2ccc(Br)cc2)n1Cc1ccccc1)CCCC3 | > 100 | > 100 µM | > 100 | > 100 µM | > 100 µM | > 100 | > 100 µM | > 100 µM | > 100 µM | > 100 µM | 8.02 | 58.7 | 10.8 | 37.4 | 5.63 | 41.8 | 5.88 | 46.2 | 6.64 | 21.2 |
| COc1cccc2c1c(C1=C(c3cn(C)c4ccccc34)C(=O)NC1=O)cn2C | > 25 | > 25 µM | > 25 | > 25 µM | > 25 µM | > 25 | > 25 µM | > 25 µM | > 25 µM | > 25 µM | > 25 | > 25 | > 25 | > 25 | > 25 | > 25 | > 25 | > 25 | > 25 | > 25 |
| C[C@H](CCCNCCCNCCCN)[C@H]1CC[C@H]2[C@@H]3[C@H](OCCCN)C[C@H]4C[C@H](OCCCN)CC[C@]4(C)[C@H]3C[C@H](OCCCN)[C@]12C | 5.1 | 8.86 µM | 3.46 | > 76.7 µM | > 26.4 µM | > 83.4 | 3.29 µM | 18.3 µM | > 100 µM | > 37 µM | 0.923 | 0.421 | 0.98 |  | 6.46 | 1.92 | 0.626 | 2.08 | 18.3 | 2.59 |
